Assay [1] deals with Luciferin 4-monooxygenase (Photinus pyralis, UniProt P08659). In words: inhibition of purified Photinus pyralis luciferase – biochemical, luminescence, dose response (AID 1891).
A short description of assay [2]: Luminescence Cell-Based Dose Confirmation HTS to Identify Inhibitors of Platelet Dense Granule Release. [Related pubchem assays: 1663 (Primary HTS), 1678 (Summary of Project)]. Format: functional.
A short description of assay [3]: Luminescence Cell-Based Dose Confirmation HTS to Identify Activators of 5'UTR Stem-Loop Driven Alpha-Synuclein mRNA Translation in H4 Neuroglioblastoma Cells. [Related pubchem assays: 1829 (Project Summary), 1814 (Primary HTS)]. The assay is classed as functional.
A short description of assay [4]: Luminescence Cell-Based Dose Response HTS to Identify Activators of Luciferase Translation or Activity in H4 […] Cells. [Related pubchem assays: 1829 (Project Summary), 1814 (Primary HTS)]. The assay is classed as functional.
The next assay concerns H4. In words: Luminescence Cell-Based Dose Response HTS to Identify Activators of 5'UTR Stem-Loop Driven Prion Protein mRNA Translation in H4 Neuroglioblastoma Cells. [Related pubchem assays: 1829 (Project Summary), 1814 (Primary HTS)]. Format: functional. Conditions: Homo sapiens.
The nature of assay [5]: NIH-3T3 fibroblast cytotoxicity, dose response, cytotoxicity control, cell-based, fluorescence, Alamar Blue, secondary assay (AID 2327).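 Further: NIH-3T3 mouse fibroblasts cultured with fluconazole at 8 µg/mL.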 Format: functional. For orientation: The colour change of resazurin is a common sign of viable cells or microbes.
A short description of assay [6]: luciferase reporter signal suppression in cells – H4 neuroglioma cells, luminescence, dose response (AID 1990). Format: functional, cell-based.
A short description of assay [7]: Luminescence Cell-Based Dose Response HTS to Identify Inhibitors of 5'UTR Stem-Loop Driven Prion Protein mRNA Translation in H4 Neuroglioblastoma Cells. [Related pubchem assays: 1827 (Project Summary), 1813 (Primary HTS)]. The assay is classed as functional.
The nature of assay [8]: alpha-synuclein stem-loop luciferase translation blockers – H4 neuroglioma cells, luminescence, confirmation (AID 1988). The assay is classed as functional, cell-based.
A short description of assay [9]: Trypanosoma cruzi growth suppression in host cells – NIH3T3 host cells, beta-gal luminescence, confirmation (AID 2044).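 Further: intracellular parasites grown in NIH/3T3 mouse fibroblasts as host cells; luminescent beta-galactosidase reporter signal from transgenic T. cruzi replicating inside host cells; inhibitors lower the luminescence signal.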 The assay is classed as functional, cell-based.
Assay [10] is described as follows: NIH3T3 cell viability loss – ATP luminescence, mouse fibroblasts, counter-screen, dose response (AID 2010).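 Further: cells exposed to compound for about 90 hours before reading.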 The assay is classed as functional, cell-based.
For assay [11], the target named is T1, Rac GTPase-activating protein 1 (Homo sapiens, UniProt Q9H0H5).
T1 sequence (Q9H0H5 whole entry): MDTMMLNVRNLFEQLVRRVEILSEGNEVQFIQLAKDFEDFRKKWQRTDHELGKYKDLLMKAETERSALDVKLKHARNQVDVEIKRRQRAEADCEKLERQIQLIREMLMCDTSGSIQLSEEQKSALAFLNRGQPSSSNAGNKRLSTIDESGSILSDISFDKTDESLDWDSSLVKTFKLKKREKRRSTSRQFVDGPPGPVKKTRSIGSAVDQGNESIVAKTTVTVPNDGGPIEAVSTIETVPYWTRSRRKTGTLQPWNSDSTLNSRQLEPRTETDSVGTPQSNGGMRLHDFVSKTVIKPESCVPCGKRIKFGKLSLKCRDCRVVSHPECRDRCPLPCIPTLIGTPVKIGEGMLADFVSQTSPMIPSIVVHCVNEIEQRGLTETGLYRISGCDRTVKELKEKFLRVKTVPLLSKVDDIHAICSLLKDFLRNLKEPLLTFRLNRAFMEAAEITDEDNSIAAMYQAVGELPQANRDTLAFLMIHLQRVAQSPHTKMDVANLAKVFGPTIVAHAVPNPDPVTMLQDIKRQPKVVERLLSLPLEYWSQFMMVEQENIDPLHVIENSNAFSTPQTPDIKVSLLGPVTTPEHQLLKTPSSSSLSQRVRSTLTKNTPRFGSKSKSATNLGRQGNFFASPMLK
In words: blockers of MgcRacGAP-driven Rac1 GTP hydrolysis – biochemical, ADP Hunter fluorescence, primary and confirmatory, confirmation (AID 624330). The assay is classed as functional.

Each structure is given as a SMILES string. Calls of active or inactive are those of the source. For most assays here, no stated cut-off is given here; in the data, actives have a measured EC50 and inactives only a lower limit. Where only a bound is given, the exact number is not on record here.

Sequence of Luciferin 4-monooxygenase (P08659 whole entry): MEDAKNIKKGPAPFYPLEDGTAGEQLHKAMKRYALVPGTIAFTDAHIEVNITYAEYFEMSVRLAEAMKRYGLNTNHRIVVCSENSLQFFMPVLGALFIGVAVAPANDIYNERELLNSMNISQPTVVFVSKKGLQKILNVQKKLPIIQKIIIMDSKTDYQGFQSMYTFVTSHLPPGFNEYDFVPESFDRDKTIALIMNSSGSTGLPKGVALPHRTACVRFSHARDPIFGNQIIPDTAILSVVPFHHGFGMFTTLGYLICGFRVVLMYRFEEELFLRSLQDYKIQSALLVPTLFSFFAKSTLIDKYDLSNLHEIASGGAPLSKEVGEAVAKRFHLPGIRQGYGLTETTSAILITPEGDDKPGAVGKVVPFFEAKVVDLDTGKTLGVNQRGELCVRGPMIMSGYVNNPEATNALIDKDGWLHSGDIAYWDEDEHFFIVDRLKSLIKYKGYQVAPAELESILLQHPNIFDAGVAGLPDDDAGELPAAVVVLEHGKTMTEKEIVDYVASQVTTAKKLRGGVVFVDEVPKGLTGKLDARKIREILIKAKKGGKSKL

The EC50 is the concentration needed to bring the measured effect to its halfway point. Regarding `O=C(Nc1ccccc1)c1cnc2ccccc2n1`, the concentration giving a half-maximal response (EC50) in [1] and in assay [2] was > 112 µM (not active) each time.
On to `COc1ccc2nc(NNC(=O)c3cc(=O)c4ccccc4o3)sc2c1`, for which the EC50 in assay [3] was 40.6 µM (active); in assay [4], 24.4 µM (active); in the assay with H4, 17.4 µM (active).
The matching figures for `CCCc1ccc(Oc2cc(Cl)nc(N)n2)cc1`: 8.77 µM (active), 11.8 µM (active) and 72 µM (active).
For `Cc1ccc(S(=O)(=O)NCC2CCC(C(=O)NCc3ccc4c(c3)OCO4)CC2)cc1` (stereo unspecified), the EC50 in assay [1] and in assay [2] was > 112 µM (not active) in each case.
As for `c1ccc(NCc2nc(-c3ccccc3)no2)cc1`, the values for the EC50 (in assay [3]; in [4]; with H4) were 3.25 µM (active), 21.4 µM (active) and 15.8 µM (active), respectively.
As to `COc1ccc(-c2n[nH]c(S)n2)cc1`, the EC50 in assay [2] is on record as > 112 µM (not active).
In the case of `Cc1cc(C)cc(OCc2ccc(C(=O)N3N=C(C(F)F)CC3(O)C(F)F)o2)c1` (stereo unspecified), the EC50 in assay [5] is 120 µM (active).
With `NC(=O)C1CC(=O)N(c2ccc(OCc3ccc(Cl)cc3)cc2)C1` (stereo unspecified), the EC50 was 19.2 µM (active) in assay [3] and 42.6 µM (active) in assay [4].
For `O=C1C[C@H]2[C@H](CO)[C@@H](OC(=O)c3ccc(-c4ccccc4)cc3)C[C@H]2O1`, the EC50 in assay [3] is 12.8 µM (active); in [4] it was 16.9 µM (active); in the assay on H4, 69.8 µM (active).
With `OC1CN=C2C=CC=CN2C1` (stereo unspecified), the EC50 in [1] and in assay [2] was > 112 µM (not active) each time.
In the case of `CC(=O)Nc1cccc(Oc2cc(C#N)c(C#N)cc2N2CCCCCC2)c1`, the values for the EC50 in assay [6], in [7] and in assay [8] were 14.6 µM (active), > 120 µM (not active) and > 120 µM (not active), respectively.
With `NC(Cc1nc(-c2ccc(Br)cc2)cs1)=NO`, the EC50 in [5] was > 150 µM (inactive).
Consider `COc1cc(NC(=O)CN2C(=O)C(c3ccccc3)=NC23CCCCCC3)cc(OC)c1`, for which the EC50 in assay [1] and in assay [2] was > 112 µM (not active) throughout.
As for `COc1ccc(C(c2sc3nc(C)nn3c2O)N2CCCCC2)cc1` (stereo unspecified), the EC50 in assay [1] and in [2] was > 112 µM (not active) throughout.
Regarding `CCOc1ccc2nc(NC(=O)CSc3nnc(-c4ccncc4)n3CC3CCCO3)sc2c1` (stereo unspecified), the results for the EC50 (in assay [3]; in assay [4]; in the assay on H4) were 7.45 µM (active), 8.04 µM (active) and 11.8 µM (active), respectively.
Regarding `CC(C)CNc1nc(N)c([N+](=O)[O-])c(NCc2ccccc2)n1`, the EC50 in assay [6] is 16.3 µM (active); in assay [7] it was > 120 µM (not active); in assay [8] it was 22.7 µM (active).
On to `CC(Sc1nncn1C)C(=O)Nc1nnc(-c2ccccc2)s1` (stereo unspecified), for which the values for the EC50 (in assay [3]; in assay [4]; in the assay with H4) were 19.1 µM (active), 25 µM (active) and 17.5 µM (active), respectively.
As for `Cn1ncc2cc(NC(=S)NC(=O)c3ccccc3)ccc21`, the EC50 in assay [3] was 13.8 µM (active); in assay [4], 21 µM (active); in the assay on H4 it was 83 µM (active).
Turning to `Cc1nc(S)c(C#N)c(C)c1CCC#N`, the EC50 in [2] is recorded as > 112 µM (not active).
In the case of `CONC=NC(=O)NOCc1ccc(Cl)cc1Cl`, the EC50 in [1] and in assay [2] was > 112 µM (not active) each time.
As usually defined, the IC50 is the concentration that inhibits the measured activity by half. Regarding `CC(C(=O)N(C)Cc1ccccc1)N1CCN(C/C=C/c2ccccc2)CC1` (stereo unspecified), the results for the EC50 in [9] and in [10] were 0.164 µM (active) and > 30 µM (not active), respectively. For the same compound, the IC50 in assay [11] is 80.2 µM (active).
For the compound `COc1ccc(C2CC(c3ccc4ccccc4c3)=NN2C(=O)CN2CCC(C(N)=O)CC2)cc1` (stereo unspecified), the concentration giving a half-maximal response (EC50) in assay [3] was 15.6 µM (active); in assay [4] it was 18.1 µM (active); in the assay on H4, 16.5 µM (active).
As to `Nc1ccc(N2CCOCC2)c(Cl)c1`, the IC50 in assay [11] is 38.2 µM (active).
`C/C(=C\c1ccco1)CN1CCC(N2CCC(C(=O)N3CCOCC3)CC2)CC1`: the results for the EC50 (in assay [3]; in [4]; with H4) were 11.2 µM (active), 15.5 µM (active) and > 120 µM (not active), respectively.
For the compound `C/C=C/c1ccc(OCCCCN2CCN(CC)CC2)c(OC)c1`, in assay [11], the IC50 was 82 µM (active).
In the case of `Cc1cccc(N2CCN(S(=O)(=O)c3ccc4c(c3)C(C)(C)C(=O)N4C)CC2C)c1` (stereo unspecified), the EC50 in assay [1] and in [2] was > 112 µM (not active) each time.
Consider `COc1ccc(-c2cc(C(=O)Nc3cccc(Cl)c3)no2)cc1`, for which the concentration for a half-maximal effect (EC50) in the assay with H4 is 0.184 µM (active).
Take `Cc1ccc(C(=O)CC(=O)c2ccccc2)cc1`: the EC50 in assay [3] was 5.35 µM (active); in [4], 1.75 µM (active); with H4 it was > 120 µM (not active).
Consider `CCCCn1c(N)c(N(CCC(C)C)C(=O)C2CC(=O)N(c3ccc(OC)cc3OC)C2)c(=O)[nH]c1=O` (stereo unspecified), for which the EC50 in assay [1] and in assay [2] was > 112 µM (not active) in each case.
`CC(C)c1nnc(NC(=O)COc2ccccc2[N+](=O)[O-])s1`: the EC50 was 0.112 µM (active) in assay [3], 67 µM (active) in assay [4] and 13.6 µM (active) in the assay with H4.
Turning to `CSc1nc(N(C)NC(=O)c2ccc(F)cc2)c2ccccc2n1`, the EC50 in assay [6] was 10.6 µM (active); in assay [7], 0.258 µM (active); in assay [8], < 0.195 µM (active).
Consider `O=C(CSc1nnc2ccccn12)N1CCc2ccccc2C1`, for which the EC50 in assay [3] is 13.1 µM (active); in assay [4], 38.9 µM (active); in the assay on H4 it was 78 µM (active).
As for `CCN(CC(=O)Nc1cc(Cl)ccc1OC)CC(=O)NC1CCS(=O)(=O)C1` (stereo unspecified), the IC50 in assay [11] was 95.7 µM (active).
Consider `N#CC1(Nc2ccc(-c3ccc(NC4(C#N)CCCC4)cc3)cc2)CCCC1`, for which the IC50 in assay [11] is 10.3 µM (active).
In the case of `Cc1nonc1C(=O)N/N=C/c1ccc(O)cc1`, the results for the EC50 in assay [1] and in assay [2] were 0.916 µM (active) and 0.172 µM (active), respectively. Moreover, in [11], the IC50 was 95.6 µM (active).
Consider `Cc1cc(S(=O)(=O)N2CCCC2)ccc1OCC(=O)N1CCOCC1`, for which the half-maximal effective concentration (EC50) in [6], in assay [7] and in [8] was > 120 µM (not active) in each case.
In the case of `Cc1nn(-c2ccccc2)c(O)c1/C=N/N(C)c1ccccc1`, the IC50 in assay [11] was 19.3 µM (active).
Still for that read-out and setting: as for `COc1ccc(/C=N/NC(=O)CN2CCCCCCC2)c(C)c1C`, the figure is 139 µM (active).
Same read-out and setting: the result for `N#Cc1c(O)nsc1Nc1ccc(Cl)cc1` reads 79.9 µM (active).
The same measure, in the same setting: as for `Nc1ccc2c(c1)[nH]c(=O)c1cc(N)ccc12`, the figure is 10.9 µM (active); as for `NS(=O)(=O)c1ccc(Nc2nc(-c3ccc(O)cc3)cs2)cc1`, 19.9 µM (active).

For the origin of these results see ChEMBL document CHEMBL1201862, “PubChem BioAssay data set” (2004).
